Test results reported in the supplement of paper PMC11208160.

Experiment: recombinant UMI read abundance after kanamycin selection (control-corrected) (log10(CPM+1)); higher = more efficient recombination; extreme values may be limits of the assay; sequences stand for … in AGTGCAGAGAAAATCGGCCAGTTTTCTCTGCCTGCAGTCCGCATGCCGTGGGACCCCTTGGGTTCTAACCTGTTGCCTAGATTTATGCAGCGGACTGCCTTTCTCCCAAAGTGATAAACCGG…AGGTTGGTTTCACT; site = the 11-nt donor
In short: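 Reported values are log10(CPM+1) from a pooled Escherichia coli screen of donor and donor-binding-loop pairs for the IS621 bridge recombinase. Selection used IPTG (0.07 mM) plus kanamycin, against unselected plating, each in two replicates. Recombinant UMIs were amplified across the donor–target junction, sequenced, converted to CPM, averaged over replicates and scaled by control-derived factors.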
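Note: IS621 bridge recombinase in Escherichia coli cells against a fixed T5 target plasmid.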

| Sequence | recombinant UMI read abundance (log10) |
| --- | --- |
| ACAGATACATGGACCGGTTTTCCCGGTAATCCGTATTTGCC (site ACAGATACTGG) | 1.19 |
| TGTTTGGCATGGACCGGTTTTCCCGGTAATCCGTATTTGTG (site TGTTTGGCTCA) | 0.161 |
| AGAAAGCCATGGACCGGTTTTCCCGGTAATCCGTATTTGCT (site AGAAAGGCTAG) | 0 |
| CCAGGTGCATGGACCGGTTTTCCCGGTAATCCGTATTTGAT (site ACAGGTGCTAT) | 0.0184 |
| GAGTATCCATGGACCGGTTTTCCCGGTAATCCGTATTTGCT (site GAATATCCTAG) | 0 |
| CAACCAGCATGGACCGGTTTTCCCGGTAATCCGTATTTGCT (site CAATCAGCTAG) | 0 |
| CTTCTCTCATGGACCGGTTTTCCCGGTAATCCGTATTTGAA (site CTTCTCTCTTC) | 0.199 |
| TCGAATTCATGGACCGGTTTTCCCGGTAATCCGTATTTGCC (site TCGAATTCTGG) | 0 |
| GGTCCGTCATGGACCGGTTTTCCCGGTAATCCGTATTTGTT (site GGTTCGTCTAA) | 0.0141 |
| GCGCATGCATGGACCGGTTTTCCCGGTAATCCGTATTTGGT (site GCGCATGCTAC) | 1.14 |
| CCTAATACATGGACCGGTTTTCCCGGTAATCCGTATTTGGA (site CCTAATACTCC) | 0.00642 |
| TATTTTGCATGGACCGGTTTTCCCGGTAATCCGTATTTGTG (site TATTTCGCTCA) | 0.0112 |
| CAAGACACATGGACCGGTTTTCCCGGTAATCCGTATTTGGG (site CAAGCCACTCC) | 0.00576 |
| CCGGTATCATGGACCGGTTTTCCCGGTAATCCGTATTTGAC (site CCGGTATCTGT) | 1.45 |
| GAAGAATCATGGACCGGTTTTCCCGGTAATCCGTATTTGTT (site GAAGACTCTAA) | 1.41 |
| CGAGCGCCATGGACCGGTTTTCCCGGTAATCCGTATTTGTG (site CGAGCGCCTCA) | 0.219 |

| Sequence | recombinant UMI read abundance (log10) |
| --- | --- |
| TGGAAGACATGGACCGGTTTTCCCGGTAATCCGTATTTGCA (site GGGAAGACTTG) | 0 |
| TCTACTGCATGGACCGGTTTTCCCGGTAATCCGTATTTGCC (site GCTACTGCTGG) | 0 |
| ACCCTTTCATGGACCGGTTTTCCCGGTAATCCGTATTTGAC (site ATCCTTTCTGT) | 0 |
| TAGAATTCATGGACCGGTTTTCCCGGTAATCCGTATTTGCA (site TAGAATCCTTG) | 0 |
| CACTTAGCATGGACCGGTTTTCCCGGTAATCCGTATTTGGA (site CACTTGGCTTC) | 0.0129 |
| AAGGTAACATGGACCGGTTTTCCCGGTAATCCGTATTTGCT (site AATGTAACTAG) | 1.43 |
| CTCGAAACATGGACCGGTTTTCCCGGTAATCCGTATTTGCA (site CTAGAAACTTG) | 0 |
| CTTTTGGCATGGACCGGTTTTCCCGGTAATCCGTATTTGCT (site CGTTTGGCTAG) | 0.00381 |
| TAGCTAGCATGGACCGGTTTTCCCGGTAATCCGTATTTGAA (site TAGCTAGCTTA) | 0.00377 |
| TGTACACCATGGACCGGTTTTCCCGGTAATCCGTATTTGCC (site TGTACACCTGG) | 0 |
| TGTCGTCCATGGACCGGTTTTCCCGGTAATCCGTATTTGAG (site TGTCGTCCTCT) | 0.0062 |
| GGGGCACCATGGACCGGTTTTCCCGGTAATCCGTATTTGCC (site GGGGCACCTAG) | 0.0374 |
| AACCGTCCATGGACCGGTTTTCCCGGTAATCCGTATTTGCT (site AACCGTCCTAC) | 0.00247 |
| CGATAATCATGGACCGGTTTTCCCGGTAATCCGTATTTGGT (site CGATCATCTAG) | 0 |
| TAGAATACATGGACCGGTTTTCCCGGTAATCCGTATTTGCT (site TAGAATACTTG) | 0.00456 |
| ACTAAAGCATGGACCGGTTTTCCCGGTAATCCGTATTTGAT (site CCTAAAGCTAT) | 0 |
